Test results from patent publication US20210222225A1, “Medium for Disk Diffusion Method to Evaluate Antibiotic Sensitivity” (priority 2018, published 2021).
Counter-ions that a name gives are not always drawn.

Key:
ABA, KPN and PAE strains = assay: Growth of strain on guanidine hydrochloride-containing medium; format: cell-based; details: guanidine hydrochloride 5 to 50 μg/ml; agar 5.1 g/L
Procedure: A concentration of agar particles (BD Diagnostic, Sparks, Md., USA) in Mueller-Hinton broth medium (BD Diagnostic) was adjusted to 5.1 g/L, which is 30% of 17 g/L, and guanidine hydrochloride was added to a concentration of 500 μg/ml, 50 μg/ml, or 5 μg/ml. Then, solidification was performed. On a surface of each medium thus prepared was evenly inoculated each of colistin-susceptible (S) or -resistant (R) Acinetobacter baumannii (ABA) strain, colistin-susceptible (S) or -resistant (R) Klebsiella pnemoniae (KPN) strain, and colistin-susceptible (S) or -resistant (R) Pseudomonas aeruginosa (PAE) strain, and a colistin disk was placed thereon.

[1] = tested on: mcr-1-harboring Enterobacter aerogenes strain; assay: Growth of strain on protamine-containing medium, mcr-1; format: cell-based
Procedure: (§1) As in Example 1, a concentration of agar particles (BD Diagnostic, Sparks, Md., USA) in Mueller-Hinton broth medium (BD Diagnostic) was adjusted to 17 g/L or 5.1 g/L that is 30% of 17 g/L. To select a concentration of protamine, which can enhance diffusion of colistin from a disk without interfering with bacterial growth, while using the protamine at various concentrations, protamine (Sigma-Aldrich, St Louis, Mo., USA) was added to the medium at concentrations of 1 mg/ml, 700 μg/ml, 400 μg/ml, 300 μg/ml, 200 μg/ml, 150 μg/ml, 100 μg/ml, and 50 μg/ml. Each medium thus modified was solidified. Then, on a surface of each medium was evenly inoculated each of colistin-susceptible (S) or -resistant (R) Acinetobacter calcoaceticus-baumannii complex (ACB) strain, Pseudomonas aeruginosa ATCC27853 strain, and mcr-1-harboring Enterobacter aerogenes strain, and a colistin disk was placed thereon. Then, it was determined whether each strain was grown, and a diameter of a growth inhibition zone, which had been formed around the disk, was measured.

[2] = tested on: Colistin-resistant Acinetobacter; assay: Growth of strain on protamine-containing medium, ACB-R; format: cell-based, Acinetobacter calcoaceticus-baumannii complex
Procedure: as §1

PAE ATCC 27853 = assay: Growth of strain on protamine-containing medium, PAE; format: cell-based, Pseudomonas aeruginosa
Procedure: as §1

[3] = tested on: Colistin-susceptible Acinetobacter; assay: Growth of strain on protamine-containing medium, ACB-S; format: cell-based, Acinetobacter calcoaceticus-baumannii complex
Procedure: as §1

N=C(N)N [guanidine hydrochloride]
growth of the strain (ABA, KPN and PAE strains): not inhibited

protamine
Growth ([1]; 30% agar, protamine 50 μg/ml): Grown
Growth ([1]; 30% agar, protamine 100 μg/ml): Grown
Growth ([1]; 30% agar, protamine 150 μg/ml): Grown
Growth ([1]; 30% agar, protamine 200 μg/ml): Grown
Growth ([1]; 100% agar, protamine 50 μg/ml): Grown
Growth ([1]; 100% agar, protamine 100 μg/ml): Grown
Growth ([1]; 100% agar, protamine 150 μg/ml): Grown
Growth ([1]; 100% agar, protamine 200 μg/ml): Grown
Growth ([1]; 100% agar, protamine 300 μg/ml): Grown
Growth ([1]; 100% agar, protamine 400 μg/ml): Grown
Growth ([1]; 100% agar, protamine 700 μg/ml): Grown
Growth ([2]; 30% agar, protamine 50 μg/ml): Grown
Growth ([2]; 30% agar, protamine 100 μg/ml): Grown
Growth ([2]; 30% agar, protamine 150 μg/ml): Grown
Growth ([2]; 100% agar, protamine 50 μg/ml): Grown
Growth ([2]; 100% agar, protamine 100 μg/ml): Grown
Growth ([2]; 100% agar, protamine 150 μg/ml): Grown
Growth ([2]; 100% agar, protamine 200 μg/ml): Grown
Growth ([2]; 100% agar, protamine 300 μg/ml): Grown
Growth ([2]; 100% agar, protamine 400 μg/ml): Grown
Growth (PAE ATCC 27853; 30% agar, protamine 50 μg/ml): Grown
Growth (PAE ATCC 27853; 30% agar, protamine 100 μg/ml): Grown
Growth (PAE ATCC 27853; 30% agar, protamine 150 μg/ml): Grown
Growth (PAE ATCC 27853; 30% agar, protamine 200 μg/ml): Grown
Growth (PAE ATCC 27853; 100% agar, protamine 50 μg/ml): Grown
Growth (PAE ATCC 27853; 100% agar, protamine 100 μg/ml): Grown
Growth (PAE ATCC 27853; 100% agar, protamine 150 μg/ml): Grown
Growth (PAE ATCC 27853; 100% agar, protamine 200 μg/ml): Grown
Growth (PAE ATCC 27853; 100% agar, protamine 300 μg/ml): Grown
Growth (PAE ATCC 27853; 100% agar, protamine 400 μg/ml): Grown
Growth ([3]; 30% agar, protamine 50 μg/ml): Grown
Growth ([3]; 30% agar, protamine 100 μg/ml): Grown
Growth ([3]; 30% agar, protamine 150 μg/ml): Grown
Growth ([3]; 100% agar, protamine 50 μg/ml): Grown
Growth ([3]; 100% agar, protamine 100 μg/ml): Grown
Growth ([3]; 100% agar, protamine 150 μg/ml): Grown
Growth ([3]; 100% agar, protamine 200 μg/ml): Grown
Growth ([3]; 100% agar, protamine 300 μg/ml): Grown
Growth ([3]; 100% agar, protamine 400 μg/ml): Grown
Growth ([3]; 100% agar, protamine 700 μg/ml): Grown
